# Test results published in patent US20050124618A1, “Methods of modulating angiogenesis and cancer cell proliferation” (priority 2003, published 2005).
# Entries after “also recorded” stand apart in the source; their conditions may differ.
# Assays:
# [1] = tested on: extensor digitorum longus (EDL) and tibialis anterior (TA) muscles; test: Vessel density of EDL and TA muscles after 7 days of electrical stimulation; type: in vivo, rat
# Procedure: Experimental protocols and tissue preparation: After a 24-h recovery period, the implanted stimulator was activated by momentary closure of the magnetic reed switch using a small hand-held magnet. […] Contractions of the extensor digitorum longus (EDL) and tibialis anterior (TA) muscles were automatically initiated at 9 AM each day and sustained for 8 h/day over a consecutive 7-day period. At the end of the stimulation period, the animals were euthanized by an overdose of pentobarbital sodium (100 mg/kg ip), and the EDL and TA muscles were harvested for analysis as previously described (Greene A S et al., Hypertension 15: 779-783, 1990; and Parmentier J H et al., Hypertension 37: 623-629, 2001).
# Tissue harvest and morphological analysis of vessel density: The stimulated and contralateral muscles were removed, weighed, and rinsed in physiological salt solution. A 300-mg sample was taken from the rostral portion of the TA muscle and frozen in liquid nitrogen for Western blot (100 mg) and HPLC (200 mg) analysis for measurement of VEGF protein expression and 20-HETE formation, respectively. The remaining TA and EDL muscles were lightly fixed in a 0.25% formalin solution overnight. The muscles were sectioned via a manual microtome to a thickness of about 100 μm by securing the tendons and slicing parallel to the longitudinal orientation of the muscle fibers. From every animal, two slices of each EDL muscle and three slices of each TA muscle were made. The slices were than immersed for 2 h in a solution of 25 μg/ml rhodamine-labeled Griffonia simplicifolia I (GS-I) lectin (Sigma; St. Louis, Mo. (Greene A S et al., Hypertension 15: 779-783, 1990)). Immediately after this 2-h exposure to GS-I lectin, the muscles were rinsed in physiological solution. The rinsing procedure was repeated after 15 and 30 min, and the muscles were rinsed in physiological saline solution for 12 h (overnight, at 4° C.). On the next day, the slices were mounted on microscope slides with a water-soluble mounting medium consisting of toluene and acrylic resin (SP ACCU-MOUNT 280, Baxter Scientific).
# The labeled sections were visualized using a video fluorescent microscope system (Olympus ULWD CD Plan, ×20 objective, 1.6 cm working distance and 0.4 numerical aperture) with epi-illumination, as previously described (Parmentier J H et al., Hypertension 37: 623-629, 2001). In the present study, 10-15 and 20-25 representative fields were selected for study from each EDL and TA muscle slice, respectively. Each field was converted to a digitized image (DT2801 Data Translation; Marlboro, Mass.) and stored as an 8-bit/pixel image file with a resolution of 512×512 pixels. Morphometric analysis of the scanned histochemical sections was done as previously described (Parmentier J H et al., Hypertension 37: 623-629, 2001).
# Data analysis and statistics: For each muscle, the vessel counts of all the selected fields (10-15 scans×2 slices for each EDL muscle; 20-25 scans×3 slices for each TA muscle) were averaged to a single vessel density. Vessel density was expressed in terms of the mean number of vessel-grid intersections per microscope field (0.224 mm^2). For each experimental group, the measured vessel density and 20-HETE formation of the stimulated muscle was compared with its unstimulated counterpart as well as with age-matched controls. All values are presented as means±SE. The significance of differences in values measured in the same animal was evaluated using a two-factor ANOVA (drug×stimulation) with repeated measures on one factor (stimulation). Significant differences were further investigated using a post hoc test (Tukey's).
# [2] = tested on: phospho-tyrosine and phospho-Ser/Thr-Pro proteins; test: Western blot of tyrosine and serine/threonine protein phosphorylation in U251 cells; type: cell-based, human
# Procedure: (§1) They were then pelleted by centrifugation at 1,000 g for 5 min at 4° C. Cells were lysed by adding RIPA buffer [20 mM HEPES (pH 7.4), 100 mM NaCl, 1% Nonidet P-40, 0.1% SDS, 1% deoxycholic acid, 10% glycerol, 1 mM EDTA, 1 mM NaVO3, 50 mM NaF, and Protease Inhibitors Set 1 (Calbiochem, La Jolla, Calif.)]. Plates were then scraped and cells collected in a 1.5-ml centrifuge tube, followed by incubation on ice for 30 min. Homogenates of the cell suspension were centrifuged for 10 min at 14,000 g and 4° C.; the pellets were discarded and protein concentrations in the supernatant determined by bicinchoninic acid (BCA) protein assay.
# (§2) Typically, 20 μg of protein was separated on a 14% Tris-glycine gel (Invitrogen) and electroblotted on a PVDF membrane (Biotrace, Bothell, Wash.). Membranes were blocked for 1 h at room temperature with blocking buffer [0.2% I-Block reagent (Tropix, Bedford, Mass.), 0.1% Tween-20 in […]] before incubation with primary antibodies in blocking buffer (overnight at 4° C.). […] Both phospho-tyrosine (Y102) and phospho-serine/threonine-Pro MPM2 were detected using a 1:2000 dilution of the corresponding antibodies, whereas phospho-p44/p42MAPK and phospho-SAPK/JNK were detected using 1:1000 antibody dilutions. […]
# [3] = tested on: 9L rat gliosarcoma cells; test: [3H]thymidine incorporation in 9L cells; type: cell-based; conditions: 10 μM HET0016
# Procedure: [^3H]Thymidine Incorporation Studies: Thymidine incorporation studies were performed with cells grown in 35-mm culture dishes. […] Palmitic acid and EtOH served as nonspecific fatty acid and vehicle controls, respectively. At the end of the pulse, the medium was aspirated and the cells rinsed twice with cold 1× phosphate buffered saline (PBS). The rinsed cultures were fixed by exposure to cold 5% trichloracetic acid overnight at 4° C., after which fixed cells were extracted as described previously (Scholler et al., Mol. Pharmacol. 45: 944-954, 1994). A second set of non-fixed dishes was treated with 0.05% trypsin/EDTA to estimate cell numbers. [^3H]thymidine was detected by scintillation counting and expressed as dpm/10^3 cells.
# [4] = tested on: p42/p44 MAPK; test: Western blot of phospho-p42/p44 MAPK in U251 cells; type: cell-based, human; conditions: 10 μM HET0016, 24 and 48 hr
# Procedure: as §1, §2
# [5] = chronic treatment, 7 days electrical stimulation
smiles,measurement,setting,value
"CCCCc1ccc(N=CNO)c(C)c1 [HET0016, N-hydroxy-N′-(4-butyl-2 methylphenyl) formamidine]",effect on the increase in vessel density (angiogenesis) induced by electrical stimulation,"[1]; 7 days, HET0016 2 mg kg−1 day−1, ABT 50 mg kg−1 day−1",completely blocked
same,"vessel density, EDL, unstimulated side","[1]; chronic treatment, 7 days",116.0±1.0 number of vessel intersections
same,"vessel density, TA, unstimulated side","[1]; chronic treatment, 7 days",105.7±4.9 number of vessel intersections
same,"vessel density, EDL, stimulated side",[1]; [5],118.0±10.1 number of vessel intersections
same,"vessel density, TA, stimulated side",[1]; [5],110.5±1.1 number of vessel intersections
same,serine/threonine phosphorylation of proteins,[2]; 10 μM HET0016,no significant changes
same,tyrosine phosphorylation of proteins,"[2]; 10 μM HET0016, 24 and 48 hr",inhibition which was seen at 24 and 48 hr; also recorded: significant decreases at 24 and 48 hr
same,reduction of thymidine incorporation in 9L cultures,[3],60%
same,phosphorylation of p42/p44 MAPK,[4],specifically inhibited phosphorylation
